Assay results taken from article PMC10167348, “Structural mechanisms of TRPM7 activation and inhibition” (Nature Communications, 2023).
Where “and” joins values, the source holds several entries; their conditions need not be identical. Equal values may be shown once.

Key:
TRPM7-A981L = target: T1, TRPM7-A981L (Mus musculus, UniProt Q923J1, A981L); experiment: Aequorin-based Ca2+ influx assay, inhibition of TRPM7-mediated Ca2+ influx; assay type: cell-based
T1 construct: expressed in transfected cells; host or cells: HEK 293T
T1 sequence (Q923J1 whole entry A981L): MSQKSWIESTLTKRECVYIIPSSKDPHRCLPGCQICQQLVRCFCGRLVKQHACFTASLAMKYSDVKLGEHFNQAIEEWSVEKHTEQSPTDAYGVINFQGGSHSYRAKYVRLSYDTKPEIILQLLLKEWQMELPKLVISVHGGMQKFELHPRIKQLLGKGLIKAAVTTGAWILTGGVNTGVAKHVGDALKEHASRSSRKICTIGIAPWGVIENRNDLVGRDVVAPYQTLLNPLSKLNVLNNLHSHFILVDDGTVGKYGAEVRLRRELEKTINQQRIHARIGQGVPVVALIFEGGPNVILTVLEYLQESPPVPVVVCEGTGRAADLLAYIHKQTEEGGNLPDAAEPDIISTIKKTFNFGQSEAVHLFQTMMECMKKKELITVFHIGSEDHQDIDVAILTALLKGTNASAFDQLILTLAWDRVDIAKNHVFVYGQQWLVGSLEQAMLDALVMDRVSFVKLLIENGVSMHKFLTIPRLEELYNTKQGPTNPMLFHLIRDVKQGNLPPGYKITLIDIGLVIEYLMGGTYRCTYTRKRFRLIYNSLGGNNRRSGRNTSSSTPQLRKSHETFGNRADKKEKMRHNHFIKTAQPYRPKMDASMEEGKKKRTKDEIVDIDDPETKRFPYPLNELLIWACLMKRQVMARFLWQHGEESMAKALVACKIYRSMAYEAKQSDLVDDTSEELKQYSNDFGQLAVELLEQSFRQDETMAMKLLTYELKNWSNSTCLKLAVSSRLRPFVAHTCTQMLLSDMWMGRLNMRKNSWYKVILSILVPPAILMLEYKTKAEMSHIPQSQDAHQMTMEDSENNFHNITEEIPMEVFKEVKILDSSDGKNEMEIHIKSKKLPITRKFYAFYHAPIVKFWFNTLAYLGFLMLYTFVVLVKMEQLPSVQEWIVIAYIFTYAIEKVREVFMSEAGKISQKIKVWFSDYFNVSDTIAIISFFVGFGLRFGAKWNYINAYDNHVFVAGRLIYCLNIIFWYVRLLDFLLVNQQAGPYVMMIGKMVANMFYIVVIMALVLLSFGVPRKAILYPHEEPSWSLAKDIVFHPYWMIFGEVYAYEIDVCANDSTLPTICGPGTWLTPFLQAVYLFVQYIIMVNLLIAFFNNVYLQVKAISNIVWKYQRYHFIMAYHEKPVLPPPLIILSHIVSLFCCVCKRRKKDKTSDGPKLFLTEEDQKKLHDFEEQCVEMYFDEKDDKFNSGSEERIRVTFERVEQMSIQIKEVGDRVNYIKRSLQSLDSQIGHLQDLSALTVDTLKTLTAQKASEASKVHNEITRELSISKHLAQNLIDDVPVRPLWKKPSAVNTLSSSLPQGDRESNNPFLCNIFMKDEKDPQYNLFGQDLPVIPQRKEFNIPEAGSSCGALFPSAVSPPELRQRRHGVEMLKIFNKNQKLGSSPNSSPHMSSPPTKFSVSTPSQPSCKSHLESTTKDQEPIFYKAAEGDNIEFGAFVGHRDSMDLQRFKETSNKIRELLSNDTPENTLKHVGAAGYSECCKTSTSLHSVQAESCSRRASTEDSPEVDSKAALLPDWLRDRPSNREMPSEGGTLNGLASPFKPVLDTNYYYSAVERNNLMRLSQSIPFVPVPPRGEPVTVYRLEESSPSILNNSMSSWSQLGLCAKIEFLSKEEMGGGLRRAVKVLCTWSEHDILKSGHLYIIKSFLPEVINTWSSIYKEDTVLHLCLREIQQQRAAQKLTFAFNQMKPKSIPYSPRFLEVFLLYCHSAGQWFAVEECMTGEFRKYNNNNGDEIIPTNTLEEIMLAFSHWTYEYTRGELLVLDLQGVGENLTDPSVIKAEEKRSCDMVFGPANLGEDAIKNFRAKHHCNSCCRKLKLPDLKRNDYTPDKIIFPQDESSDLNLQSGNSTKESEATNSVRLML
Description: (§1) Measurements of [Ca^2+]i were performed as reported previously with several modifications[2],[52],[54]. HEK 293T cells (mycoplasma test negative, ATCC #CRL3216) were maintained at 37 °C and 5% CO2 in DMEM supplemented with 10% fetal calf serum, 100 µg/ml streptomycin and 100 U/ml penicillin (all from Thermo Fisher Scientific). Cells cultured in six-well plates (~60% confluence) were transfected with 2 µg/dish Trpm7 plasmid DNA and 0.1 µg/dish pG5A plasmid DNA encoding eGFP fused to Aequorea victoria aequorin, using Lipofectamine 2000 (Thermo Fisher Scientific). Twenty-four hours after transfection, the cells were washed with Mg^2+-free HEPES-buffered saline (Mg^2+-free HBS) containing 140 mM NaCl, 6 mM KCl, 0.5 mM CaCl2, 10 mM HEPES (pH 7.4) and 5 mM glucose, and mechanically resuspended in the Mg^2+-free HBS. For reconstitution of aequorin, cell suspensions were incubated with 5 µM coelenterazine (Biaffin GmbH) in the Mg^2+-free HBS for 30 min at room temperature. Cells were washed twice by centrifugation at 600 rpm for 5 min (Heraeus Pico 17 microcentrifuge, Thermo Fisher Scientific), resuspended in the Mg^2+-free HBS and aliquoted into 96-well plates (1 × 10^5 cells per well). Luminescence was detected at room temperature using a FLUOstar OPTIMA microplate reader (BMG LABTECH GmbH). To monitor the NS8593- and VER155008-induced inhibition of TRPM7-mediated Ca^2+ influx, the extracellular concentration of Ca^2+ was increased to 5 mM by injecting the CaCl2-containing Mg^2+-free HBS in the absence or presence of the inhibitors. […] To study activation by naltriben, TRPM7-transfected cells were exposed to Mg^2+-free HBS containing different concentrations of the agonist. The experiments were terminated by lysing cells with 0.1% (v/v) Triton X-100 in the Mg^2+-free HBS to record the total bioluminescence. The bioluminescence rates (counts/s) were analyzed at 1-s intervals and calibrated as [Ca^2+]i values using the following equation:1 p[Ca^2+]i=0.332588(−log(k))+5.5593 where k represents the rate of aequorin consumption, i.e., counts/s divided by the total number of counts.
(§2) To determine the IC50 values for NS8593 and VER155008 (EC50 for naltriben), the data were fitted with the following logistic equation:2 Ec=Emin+Emax+Emin/1+c^h/IC50^h where E(c) is the functional effect at the concentration c of the compound, Emin is the minimal effect, Emax is the maximal effect, IC50 (EC50) is the concentration of the compound that produces the half-maximal effect, and h is the Hill coefficient. Fitting of dose-response curves was performed using GraphPad Prism 8.4.0. Data are presented as the mean ± SEM.

TRPM7 WT = target: T2, TRPM7 WT (Mus musculus, UniProt Q923J1); experiment: as above; assay type: cell-based
T2 construct: expressed in transfected cells; host or cells: HEK 293T
T2 sequence (Q923J1 whole entry): as the sequence (Q923J1 whole entry A981L) above, with L981A counted along it
Description: as §1, §2

TRPM7-L671A [1] = target: T3, TRPM7-L671A (Mus musculus, UniProt Q923J1, L671A); experiment: Whole-cell patch-clamp recordings in HEK 293T cells; assay type: cell-based; conditions: 50 and 100 μM NTB
T3 construct: expressed in transfected cells; host or cells: HEK 293T
T3 sequence (Q923J1 whole entry L671A): as the sequence (Q923J1 whole entry A981L) above, with L671A, L981A counted along it
Description: (§3) Patch-clamp experiments were performed as reported previously, with a few modifications[69],[70]. HEK 293T cells grown in 35-mm dishes to ~60% confluence were transiently transfected with Trpm7 cDNAs in the pIRES2-EGFP vector (2 µg/dish). Patch-clamp experiments were conducted 18–22 h after transfection with cells displaying EGFP fluorescence. Whole-cell currents were recorded using an EPC10 patch-clamp amplifier and PatchMaster software (Version V2x69, Harvard Bioscience). Voltages were corrected for a liquid junction potential of 10 mV. Currents were elicited by voltage ramps from –100 mV to +100 mV over 50 ms acquired at 0.5 Hz. The inward and outward current amplitudes were measured at –80 mV and +80 mV and were normalized to the cell size as pA/pF. The capacitance was measured using the automated capacitance cancellation function of EPC10. The standard extracellular solution contained 140 mM NaCl, 2.8 mM KCl, 1 mM CaCl2, 2 mM MgCl2, 10 mM HEPES-NaOH, and 11 mM glucose (all from Sigma-Aldrich). Solutions were adjusted to pH 7.2 using an FE20 pH meter (Mettler Toledo) and to 290 mOsm using a Vapro 5520 osmometer (Wescor Inc). […] For the experiment with naltriben, the intracellular solution contained 120 mM Cs-glutamate, 8 mM NaCl, 10 mM Cs-EGTA, 1.5 mM MgCl2, and 10 mM HEPES-CsOH. The intracellular solution was also adjusted to pH 7.2 and 290 mOsm. Data are presented as the mean ± SEM Unless indicated otherwise, data were compared by unpaired t-test (GraphPad Prism 8.4.0). For multiple comparisons, ordinary one-way ANOVA (GraphPad Prism 8.4.0) was used. Significance was accepted at P ≤ 0.05.

TRPM7-N752K [2] = target: T4, TRPM7-N752K (Mus musculus, UniProt Q923J1, N752K); experiment: as above; assay type: cell-based; conditions: 50 and 100 μM NTB
T4 construct: expressed in transfected cells; host or cells: HEK 293T
T4 sequence (Q923J1 whole entry N752K): as the sequence (Q923J1 whole entry A981L) above, with N752K, L981A counted along it
Description: as §3

[3] = Solubility of the compound (authors' remark); conditions: mM range could not be examined
TRPM7-M741A = target: T5, TRPM7-M741A (Mus musculus, UniProt Q923J1, M741A); experiment: Aequorin-based Ca2+ influx assay, activation by naltriben; assay type: cell-based; conditions: for TRPM7 activation, fold: replicate values
T5 construct: expressed in transfected cells; host or cells: HEK 293T
T5 sequence (Q923J1 whole entry M741A): as the sequence (Q923J1 whole entry A981L) above, with M741A, L981A counted along it
Description: as §1, §2

TRPM7-L671A/N752K = target: T6, TRPM7-L671A/N752K (Mus musculus, UniProt Q923J1, L671A/N752K); experiment: as above; assay type: cell-based
T6 construct: expressed in transfected cells; host or cells: HEK 293T
T6 sequence (Q923J1 whole entry L671A/N752K): as the sequence (Q923J1 whole entry A981L) above, with L671A, N752K, L981A counted along it
Description: as §1, §2

TRPM7-L671A [4] = target: T3, TRPM7-L671A; experiment: as above; assay type: cell-based
Description: as §1, §2

TRPM7-N752K [5] = target: T4, TRPM7-N752K; experiment: as above; assay type: cell-based
Description: as §1, §2

c1ccc2c(c1)CCC[C@H]2Nc1nc2ccccc2[nH]1 [NS8593]
remaining activity at 0.3 µM (TRPM7-A981L; [NS8593] 0.3 µM, replicate values, read-out: TRPM7 activity, 100%): 105%
remaining activity at 0.7 µM (TRPM7-A981L; [NS8593] 0.7 µM, replicate values, read-out: TRPM7 activity, 100%): 114%
remaining activity at 1 µM (TRPM7-A981L; [NS8593] 1.0 µM, replicate values, read-out: TRPM7 activity, 100%): 112%
remaining activity at 3 µM (TRPM7-A981L; [NS8593] 3.0 µM, replicate values, read-out: TRPM7 activity, 100%): 99.4%
Hill coefficient (TRPM7-A981L; antagonist, mean ± SEM): –1.61 ± 0.45
IC50 (TRPM7-A981L; antagonist, mean ± SEM): 11.6 ± 2.75 µM
remaining activity at 7 µM (TRPM7 WT; [NS8593] 7.0 µM, replicate values, read-out: TRPM7 activity, 100%): 0%
remaining activity at 30 µM (TRPM7 WT; [NS8593] 30.0 µM, replicate values, read-out: TRPM7 activity, 100%): 0%
remaining activity at 50 µM (TRPM7 WT; [NS8593] 50.0 µM, replicate values, read-out: TRPM7 activity, 100%): 0%
Hill coefficient (TRPM7 WT; antagonist, mean ± SEM): –1.73 ± 0.26
IC50 (TRPM7 WT; antagonist, mean ± SEM): 0.91 ± 0.08 µM

Oc1ccc2c3c1O[C@H]1c4oc5ccccc5c4C[C@@]4(O)[C@@H](C2)N(CC2CC2)CC[C@]314 [Naltriben, naltriben]
sensitivity of TRPM7 currents to agonist, mutant vs WT (TRPM7-L671A [1]): reduced sensitivity
sensitivity of TRPM7 currents to agonist, mutant vs WT (TRPM7-N752K [2]): reduced sensitivity
solubility [3]: limited solubility
EC50 (TRPM7-M741A): 85 ± 6.51 µM
TRPM7 activation, fold (TRPM7-M741A; M741A, [Naltriben] 10 µM): 0.99 fold and 1.09 fold and 1.07 fold (2×)
TRPM7 activation, fold (TRPM7-M741A; M741A, [Naltriben] 20 µM): 1.10 fold and 1.30 fold and 1.28 fold and 1.20 fold
TRPM7 activation, fold (TRPM7-M741A; M741A, [Naltriben] 30 µM): 1.39 fold and 1.61 fold and 1.52 fold and 1.40 fold
TRPM7 activation, fold (TRPM7-M741A; M741A, [Naltriben] 40 µM): 1.53 fold and 1.69 fold and 1.74 fold and 1.64 fold
TRPM7 activation, fold (TRPM7-M741A; M741A, [Naltriben] 50 µM): 1.77 fold and 2.03 fold and 1.91 fold and 1.96 fold
TRPM7 activation, fold (TRPM7-M741A; M741A, [Naltriben] 100 µM): 2.28 fold and 2.65 fold and 2.56 fold and 2.47 fold
TRPM7 activation, fold (TRPM7-M741A; M741A, [Naltriben] 200 µM): 2.83 fold and 3.14 fold and 3.02 fold and 2.90 fold
TRPM7 activation, fold (TRPM7-M741A; M741A, [Naltriben] 300 µM): 3.11 fold and 3.30 fold and 3.34 fold and 3.20 fold
TRPM7 activation, fold (TRPM7-M741A; M741A, [Naltriben] 400 µM): 3.18 fold and 3.51 fold and 3.48 fold and 3.46 fold
TRPM7 activation, fold (TRPM7-M741A; M741A, [Naltriben] 500 µM): 3.39 fold and 3.58 fold (2×) and 3.45 fold
Hill coefficient (TRPM7-M741A; M741A, agonist, mean ± SEM): 1.37 ± 0.11
EC50 (TRPM7-L671A/N752K): 230 ± 48.9 µM
Hill coefficient (TRPM7-L671A/N752K; N752K/ L671A, agonist, mean ± SEM): 2.82 ± 1.38
EC50 (TRPM7-L671A [4]): 145 ± 22.9 µM
Hill coefficient (TRPM7-L671A [4]; L671A, agonist, mean ± SEM): 1.68 ± 0.32
EC50 (TRPM7-N752K [5]): 191 ± 18 µM
Hill coefficient (TRPM7-N752K [5]; N752K, agonist, mean ± SEM): 1.91 ± 0.24
